According to paper PMC8179358, “An explicitly designed paratope of amyloid-β prevents neuronal apoptosis in vitro and hippocampal damage in rat brain” (Chemical Science, 2020):

System: hippocampal neurons, Aβ40-infused rats
Test: Cresyl violet staining of Nissl granules in hippocampal neurons
Format: in vivo, Sprague-Dawley rats
Conditions: intra-hippocampal Aβ40, vs control and sham, P < 0.01, n = 6
Procedure: The overproduction of Aβ damages hippocampal neurons and causes cognitive impairments in AD. […] Cresyl violet staining was performed for identification of Nissl granules in neurons to reveal hippocampal neurodegeneration in this experiment. […]
e. Histopathological experiments for sub-chronic toxicity
Histopathological analysis was carried out on the preserved liver and kidney tissues. The SP1 treated rats and control rats were sacrificed by decapitation after 42 days of treatment schedule. Organs were removed and fixed in 10% buffered neutral formalin for 48 h. The fixed organs were embedded in paraffin wax. Sections were cut by using a microtome with 5-micrometer thickness. Slides were stained with Haematoxylin and eosin (H &E staining) for histological examination. Slides were observed under the light microscope (Dewinter Smart, India)for histopathological changes, and images were taken at […]
The lyophilized Aβ40 peptide was dissolved in artificial cerebrospinal fluid (aCSF: 119mM NaCl, 26.2mm NaHCO3, 2.5mM KCl, 1mM NaH2PO4, 1.3mM MgCl2, 10mM glucose; pH 7.4) solution at a concentration of 1mg/ml for stock and incubated at 37°C for 72 h to induce aggregation. The solution finally kept at 4°C before using it. […]
respective concentrations of SP1were prepared from this stock solution. g. […]

## Aβ40: commercially available Aβ40 peptide
  intensity of Nissl granules, Aβ40 alone: significant (P < 0.01) decrease in the intensity of Nissl granules
